Measured values as given in ChEMBL document CHEMBL3813700, “New halogenated tris-(phenylalkyl)amines as h5-HT2B receptor ligands” (Bioorg Med Chem Lett, 2016).

What was measured:
Homo sapiens [1] = species: Homo sapiens; experiment: Selectivity index, ratio of Ki for human 5-HT2C receptor to Ki for human 5-HT2B receptor
Homo sapiens [2] = species: Homo sapiens; experiment: Selectivity index, ratio of Ki for human 5-HT2A receptor to Ki for human 5-HT2B receptor
[3] = molecular target: T1, 5-hydroxytryptamine receptor 2B (Homo sapiens, UniProt P41595); experiment: Antagonist activity at human 5-HT2B receptor by PDSP assay
[4] = molecular target: T1, 5-hydroxytryptamine receptor 2B; experiment: Displacement of [3H]LSD from human 5-HT2B receptor measured after 90 mins by microbeta scintillation counting method
[5] = molecular target: T2, 5-hydroxytryptamine receptor 2C (Homo sapiens, UniProt P28335); experiment: Displacement of [3H]mesulergine from human 5-HT2C receptor measured after 90 mins by microbeta scintillation counting method
T2 sequence (P28335 whole entry): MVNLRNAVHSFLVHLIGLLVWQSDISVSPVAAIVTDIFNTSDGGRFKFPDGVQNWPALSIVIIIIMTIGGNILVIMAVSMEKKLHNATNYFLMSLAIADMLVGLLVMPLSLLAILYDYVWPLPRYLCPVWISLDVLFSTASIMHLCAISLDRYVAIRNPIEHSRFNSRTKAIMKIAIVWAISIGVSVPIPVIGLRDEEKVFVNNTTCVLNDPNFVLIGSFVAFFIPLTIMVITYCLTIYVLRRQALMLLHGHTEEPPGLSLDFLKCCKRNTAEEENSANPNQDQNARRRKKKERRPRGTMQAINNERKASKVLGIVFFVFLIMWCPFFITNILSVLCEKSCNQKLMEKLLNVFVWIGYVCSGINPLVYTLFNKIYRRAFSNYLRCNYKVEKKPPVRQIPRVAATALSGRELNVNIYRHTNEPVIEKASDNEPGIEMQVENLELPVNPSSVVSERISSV

[6] = molecular target: 5-hydroxytryptamine receptor 2A (Homo sapiens, UniProt P28223); experiment: Displacement of [3H]ketanserin from human 5-HT2A receptor measured after 90 mins by microbeta scintillation counting method
Chain of 5-hydroxytryptamine receptor 2A (P28223 whole entry): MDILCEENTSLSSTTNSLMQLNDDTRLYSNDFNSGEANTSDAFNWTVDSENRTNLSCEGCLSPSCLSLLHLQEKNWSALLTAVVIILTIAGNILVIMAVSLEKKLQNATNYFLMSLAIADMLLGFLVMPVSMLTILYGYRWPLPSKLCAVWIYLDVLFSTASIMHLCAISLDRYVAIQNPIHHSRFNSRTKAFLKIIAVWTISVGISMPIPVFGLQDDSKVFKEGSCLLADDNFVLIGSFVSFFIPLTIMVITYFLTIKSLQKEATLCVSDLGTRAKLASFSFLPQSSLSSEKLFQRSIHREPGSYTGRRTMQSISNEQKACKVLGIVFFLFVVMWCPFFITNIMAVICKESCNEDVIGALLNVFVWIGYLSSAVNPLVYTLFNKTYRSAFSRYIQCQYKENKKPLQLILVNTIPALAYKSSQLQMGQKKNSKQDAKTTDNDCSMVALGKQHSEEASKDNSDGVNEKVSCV

T1 sequence (P41595 whole entry): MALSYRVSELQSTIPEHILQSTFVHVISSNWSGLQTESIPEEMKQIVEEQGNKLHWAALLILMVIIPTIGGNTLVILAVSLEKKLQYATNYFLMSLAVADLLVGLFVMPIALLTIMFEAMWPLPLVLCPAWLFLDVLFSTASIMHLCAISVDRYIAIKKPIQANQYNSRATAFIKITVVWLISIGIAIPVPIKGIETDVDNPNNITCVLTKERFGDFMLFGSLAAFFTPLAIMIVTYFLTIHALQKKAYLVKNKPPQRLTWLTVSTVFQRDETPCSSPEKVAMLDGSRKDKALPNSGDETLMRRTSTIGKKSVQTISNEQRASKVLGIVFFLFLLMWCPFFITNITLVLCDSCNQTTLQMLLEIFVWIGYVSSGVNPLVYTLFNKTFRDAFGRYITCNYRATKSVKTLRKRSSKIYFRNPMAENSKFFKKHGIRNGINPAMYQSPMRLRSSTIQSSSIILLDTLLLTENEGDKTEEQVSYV

Compound | Ratio Ki (Homo sapiens [1]) | Ratio Ki (Homo sapiens [2]) | IC50 [3] [nM] | Ki [4] [nM] | Ki [5] [nM] | Ki [6] [nM]
COc1ccc(CCN(CCCc2ccccc2Br)CCc2ccc3c(c2)OCO3)cc1OC | 36 | 16 | 326 | 3.4 | 124 | 54
COc1ccc(CCN(CCCc2ccccc2Cl)CCc2ccc3c(c2)OCO3)cc1OC | 30 | 14 | 99 | 3.1 | 92 | 43
COc1ccc(CCN(CCCc2cccc(F)c2)CCc2ccc3c(c2)OCO3)cc1OC | 9 | 10 |  | 18 | 167 | 185
COc1ccc(CCN(CCCc2ccccc2F)CCc2ccc3c(c2)OCO3)cc1OC | 46 | 38 | 135 | 1.7 | 79 | 65
COc1ccc(CCN(CCCc2cccc(Cl)c2)CCc2ccc3c(c2)OCO3)cc1OC | 12 | 7 |  | 17 | 206 | 125
COc1ccc(CCN(CCCc2cccc(Br)c2)CCc2ccc3c(c2)OCO3)cc1OC | 10 | 7 |  | 14 | 143 | 103
COc1ccc(CCN(CCCc2ccc(Br)cc2)CCc2ccc3c(c2)OCO3)cc1OC | 5 | 5 |  | 45 | 219 | 221
COc1ccc(CCN(CCCc2ccc(I)cc2)CCc2ccc3c(c2)OCO3)cc1OC | 4 | 6 |  | 51 | 224 | 288
COc1ccc(CCN(CCCc2ccccc2)CCc2ccc3c(c2)OCO3)cc1OC | 15 | 6 |  |  |  | 
COc1ccc(CCN(CCCc2ccc(Cl)cc2)CCc2ccc3c(c2)OCO3)cc1OC | 4 | 7 |  | 54 | 235 | 365
COc1ccc(CCN(CCCc2ccccc2I)CCc2ccc3c(c2)OCO3)cc1OC | 5 | 6 |  | 13 | 68 | 75
Cn1ccc2cc(NC(=O)Nc3cccnc3)ccc21 |  |  |  | 21 |  | 
COc1ccc(CCN(CCCc2ccc(F)cc2)CCc2ccc3c(c2)OCO3)cc1OC | 9 | 13 |  | 14 | 126 | 185
COc1ccc(CCN(CCCc2cccc(I)c2)CCc2ccc3c(c2)OCO3)cc1OC | 9 | 9 |  | 18 | 154 | 169
